# Source: patent US20190054035A1, “SELF-ASSEMBLED PEPTIDE NANOFIBERS AND USE THEREOF FOR TARGETED DRUG DELIVERY” (Yissum Research Development Company of the Hebrew …, priority 2017, published 2019)
# Entries after “also recorded” stand apart in the source; their conditions may differ. Where a SMILES comes first, the peptide text is derived from it. The star is where a group is joined. Fmoc = O=C(OCC1c2ccccc2-c2ccccc21)*; Cbz = O=C(OCc1ccccc1)*
# Experiments:
# cathepsin B [1] = biological target: T1, cathepsin B (Homo sapiens, UniProt P07858); assay: Cleavage of substrate peptides by cathepsin B, fragment analysis by LC-MS; format: biochemical; conditions: 3 hours at 37° C., pH 5.5, LC-MS fragment analysis
# T1 construct: made in house; host or cells: E. coli BL21(DE3)pLysS
# Procedure: (§1) Each peptide (1 nmole) was treated with […] cathepsin B or cathepsin L (generated by transformation of E. coli BL21(DE3)pLysS strain with the pET3a/procathepsin B or procathepsin L vectors) or acetate buffer vehicle (50 mM acetate, 5 mM MgCl2, 2 mM DTT, adjusted to pH 5.5) for 3 hours at 37° C. Next, enzymes were precipitated by an hour incubation at −80° C. in 80% cold methanol followed by 10 minutes of 6000 g centrifugation at 4° C. Supernatant volume was reduced to about 15 μl under vacuum, adjusted to a final volume of 30 μl with methanol and analyzed by LCMS equipped with C18 reverse phase.
# cathepsin L = biological target: T2, cathepsin L (Homo sapiens, UniProt P07711); assay: Cleavage of substrate peptides by cathepsin L, fragment analysis by LC-MS; format: biochemical; conditions: 3 hours at 37° C., pH 5.5, LC-MS fragment analysis
# T2 construct: made in house; host or cells: E. coli BL21(DE3)pLysS
# T2 sequence (P07711 18-333 limits assumed): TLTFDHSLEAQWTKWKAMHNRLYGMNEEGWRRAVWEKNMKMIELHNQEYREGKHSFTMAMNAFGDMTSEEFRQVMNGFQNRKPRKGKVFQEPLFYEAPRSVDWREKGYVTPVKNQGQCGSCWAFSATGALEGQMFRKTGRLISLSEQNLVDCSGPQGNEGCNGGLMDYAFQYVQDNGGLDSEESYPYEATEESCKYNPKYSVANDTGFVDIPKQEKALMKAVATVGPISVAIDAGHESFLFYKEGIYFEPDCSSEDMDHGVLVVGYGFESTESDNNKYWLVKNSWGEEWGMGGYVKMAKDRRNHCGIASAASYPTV
# Procedure: as §1
# [2] = Self-assembly of TPSs into nanofibers, electron microscopy (TEM/SEM); format: physicochemical; conditions: for self-assembly into ordered nanofibers / Diameter of TPS nanofibers: TEM; for self-assembly into ordered nanofibers: 5 mg/ml (1 mg/ml TPS8, TPS9); for Diameter of TPS nanofibers: solvent switching DMSO to water
# Procedure: Lyophilized peptides were dissolved in DMSO to a concentration of 100 mg/ml and then diluted in DDW to the indicated final concentration.
# Transmission electron microscopy (TEM) analysis was performed by applying 10 μl of samples to a 200 or 400-mesh copper grids covered by carbon-stabilized Formvar film (SPI, West Chester, Pa.). The samples were allowed to adsorb for 2 minutes before excess fluid was blotted off. Samples were negatively stained by depositing 10 μl of 2% uranyl acetate on the grid and allowing it to adsorb for 2 minutes before excess fluid was blotted off. Except the sample in FIG. 9E, all samples were negatively stained. TEM micrographs were recorded using a JEOL 1200EX or JEOL JEM-1400Plus electron microscope operating at different kV.
# Scanning Electron Microscopy (SEM) samples were prepared as described above for TEM on a 400-mesh copper grids, without uranyl acetate staining, and viewed using FBI Magellan™ 400L system.
# [3] = Kinetics of TPS4 self-assembly by turbidity; format: physicochemical; conditions: 0.5, 1 or 2 mg/ml, 37° C., first 5 hours
# Procedure: Freshly prepared aliquots of 0.5, 1 or 2 mg/ml of TPS4 were placed in triplicates in a 96-well plate, 100 ul/well. Plate was placed at 37° C. in a Biotek Cytation 3 plate reader (Winooski, Vt., USA) and absorbance at 350 nm was measured every 2 minutes during 5 hours.
# cathepsin B [4] = biological target: T1, cathepsin B; assay: Turbidity analysis of TPS4 nanofiber degradation by cathepsin B; format: biochemical; conditions: 0.5, 1 and 2 mg/ml TPS4, 37° C.
# Procedure: Turbidity analysis for TPS4 solutions was conducted using triplicates of freshly prepared solutions as described above in a 96 well plate. Aliquots of 1, 2 or 4 mg/ml were allowed to assemble for 4-5 hours at room temperature. Next, 0.064, 0.128 or 0.255 μM of cathepsin B or acetate buffer vehicle were added, diluting the samples to 0.5, 1, and 2 mg/ml, respectively. The plate was placed at 37° C. in a Biotek Synergy HT plate reader (Winooski, Vt., USA) and absorbance was measured for 12 hours as described above. After 24 hours since enzyme addition, a color picture was taken and the turbidity was measured again.
# MDA-MB 231 cells = assay: TPS4 nanofibers cytotoxicity, methylene blue assay; format: cell-based, human; conditions: 0.5 mg/ml nanofibers, 24 or 48 hours
# Procedure: MDA-MB 231 human breast adenocarcinoma cells were cultured in Dulbecco's modified eagle's medium (DMEM) supplemented with 10% fetal bovine serum (FBS), 1% penicillin and 1% streptomycin in a humidified atmosphere of 5% CO2 at 37° C. One day prior to treatment MDA-MB 231 cells (7×10^3 cells/well) were cultured in a 96-well plate. The media of TPS4 that was assembled in DMEM was removed by centrifugation (14,000 rpm, 4° C.) and the nanofibers were resuspended in DMEM supplemented with 10% […], 1% penicillin and 1% streptomycin. Cells in triplicates were incubated with 0.5 mg/ml of TPS4 nanofibers (final concentration of 0.1% DMSO was kept constant) in growth medium at 37° C. After 24 or 48 hours of treatment, cell survival was determined by standard methylene blue assay.
# 4T1 tumor lysates = assay: Nanofibers degradation by 4T1 tumor lysates; format: biochemical, mice
# Procedure: (§2) Tissue lysates were prepared as previously described. Assembly of TPS4 in triplicates was performed for 4 hours in acetate buffer as described in FIG. 6B. Next, 100 μg of lysates from 4T1 tumor or muscles, or RIPA vehicle control (1% Tergitol-type NP-40 (nonyl phenoxypolyethoxylethanol), 0.1% SDS, 0.5% sodium deoxycholate) were added in acetate buffer. The absorbance was read at 350 nm after gentle shaking at 37° C. for indicated times using a BioTek plate reader.
# [5] = tested on: lysates from mice muscles; assay: Nanofibers degradation by mice muscle lysates; format: biochemical; conditions: 0.5 mg/ml TPS4, mice muscle lysates, first ten hours
# Procedure: as §2
Compound,"Number of amino acids removed from each TPS after cathepsin treatment, Cat B (cathepsin B [1])","Number of amino acids removed from each TPS after cathepsin treatment, Cat L (cathepsin L)",Diameter of TPS nanofibers [2] [nm],also measured
NH2-FFKF-amide [TPS6],1,2,,self-assembly into ordered nanofibers [2]: excluding
Ac-FFKF-amide [TPS7],1,2,,self-assembly into ordered nanofibers [2]: excluding
Cbz-FFKF-NH2 [TPS8],,2,30 ± 6,
Fmoc-FFKF-NH2 [TPS9],,,13 ± 4,
NH2-FFKF-OH (H-FFKF-OH) [TPS1],1,2,310 ± 80,
Fmoc-FFKF-OH (SMILES NCCCC[C@H](NC(=O)[C@H](Cc1ccccc1)NC(=O)[C@H](Cc1ccccc1)NC(=O)OCC1c2ccccc2-c2ccccc21)C(=O)N[C@@H](Cc1ccccc1)C(=O)O) [TPS3],,2,14 ± 2,
Fmoc-Phe-Lys-Phe-NH2 [TPS5],1,1,66 ± 13,
Ac-FFKF-OH [TPS2],2,2,12 ± 1,
"NCCCC[C@H](NC(=O)[C@H](Cc1ccccc1)NC(=O)[C@H](Cc1ccccc1)NC(=O)OCc1ccccc1)C(=O)N[C@@H](Cc1ccccc1)C(=O)O [TPS4, Cbz-FFKF-OH] (Cbz-FFKF-OH)",2,2,24 ± 6,"time to form fibers upon assembly initiation ([2]; microscopic examination (data not shown)): instantly formed fibers; increase in turbidity (absorbance at 350 nm) during self-assembly [3]: up to 2.8±0.6 folds; degradation of assembled nanofibers by cathepsin B (turbidity at 350 nm) (cathepsin B [4]): significant and robust degradation; cytotoxicity / growth inhibition (MDA-MB 231 cells): no growth inhibition; also recorded: no cytotoxicity; nanofiber degradation over time (4T1 tumor lysates; 0.5 mg/ml TPS4, 4T1 tumor lysates, turbidity at 350 nm): degraded the majority of TPS4 nanofibers within two hours; remaining nanofibers relative to vehicle (absorbance at 350 nm) (4T1 tumor lysates; overnight lysate treatment, all concentrations tested): less than 20%; nanofiber degradation at the lowest concentration (4T1 tumor lysates; overnight lysate treatment, lowest TPS4 concentration): full degradation; nanofiber degradation over time [5]: limited effect"
